Source: patent publication US8114412B2, “T. cruzi-derived neurotrophic agents and methods of use therefor” (priority 1999, dated 2012)
Entries after “also recorded” stand apart in the source; their conditions may differ.

Legend:
[1] = tested on: PC12 cells; assay: Neurite outgrowth assay in PC12 cells; assay type: cell-based, rat
From the text: (§1) PC12 cells were obtained from ATCC (Manassas, Va. (Accession No. CRL-1721)) and cultured on collagen-coated dishes in RPMI 1640 supplemented with 10% horse serum and 5% fetal bovine serum (Greene, L. A. and Tishler, A. S., Proc. Natl. Acad. Sci. USA, 73: 2424-2428 (1976)). For differentiation and survival experiments, cells were washed three times in serum-free RPMI/0.2% BSA, plated in the same medium in collagen-coated plastic dishes at 2×10^5/ml, without and with growth factors, TS, recombinant proteins, synthetic peptides, for the time and concentrations indicated in the Figures.
96-well microtiter plates were coated overnight at 4° C. with the TS or peptides or fragments thereof, or with control proteins laminin (Ln) or bovine serum albumin (BSA) at 500 μg/ml. After removing the compounds, the plates were further incubated with 1% BSA for 1 hour at room temperature and immediately used as substratum for PC12 or N18 (Prasad, K. N., Biol Rev Camb Philos Soc, 66:431-451 (1991)) cells in serum-free RPMI/0.2% BSA. Neurite outgrowth was measured using a phase-contrast microscope 17 hours later.

[2] = tested on: PC12 cells; assay: Trophic factor withdrawal-induced apoptosis of PC12 cells (DAPI/TUNEL); assay type: cell-based, rat; conditions: for inhibition of apoptosis of PC12 cells by peptides: further studies; for protection of PC12 cells from apoptosis induced by trophic factor withdrawal: 17 hours
From the text: as §1
Cell staining with 4,6-diamino-2-phenylindole (DAPI). Cells were fixed with 4% formaldehyde in PBS for 5 minutes, washed with PBS, stained with 10 μg/ml DAPI (Sigma) for 2 minutes, washed with PBS, and visualized under UV light using a fluorescent microscope. About 300-400 cells were examined under the microscope to determine the percentage of apoptotic cells.
Cell DNA nick end labeling (TUNEL) (Gavrieli, Y., et al., J. Cell. Biol. 119: 493-501 (1992)) assay was performed using a kit purchased from Boehringer Mannheim as described by the manufacturer.
(§2) Protection against apoptosis of PC12 cells in serum-free medium containing a test agent (agent N)(e.g., protection induced by TS, TS fragments, NGF or other growth factors), was calculated by the formula: 100%-[(apoptosis(%) of cells kept in RPMI containing test agent N÷apoptosis (%) of cells kept in RPMI)×100%]. Testing the effect of wortmannin (Sigma) and LY294002 (Sigma) in inhibiting the neuroprotection of TS was performed following the protocol described by others (Yao and Cooper, Science, 267:2003-2006 (1995); D'Mello et al., J. Neurosci 17:1548-1560 (1997)). In brief, PC12 cells were switched from growth medium to RPMI without and with TS or various other growth factors. After 24 hr, wortmannin and LY294002 were added to the cultures. After another 24 hrs, cells were examined for apoptosis by the DAPI assay, as above.

[3] = tested on: human Schwann cells; assay: Serum withdrawal-induced apoptosis of immortalized human Schwann cells (DAPI); assay type: cell-based; conditions: for inhibition of apoptosis of Schwann cells by peptides: further studies
[4] = tested on: human intestinal microvascular endothelial cells (HIMEC); assay: IL-6 secretion by HIMEC (ELISA); assay type: cell-based; conditions: 24 hrs culture
Protocol: (§3) Primary cultures of human intestinal microvascular endothelial cells (HIMEC) isolated from normal jejunal mucosa/submucosal tissue were prepared as described (Strong et al., Gastroenterology 114: 1244-1256 (1998)). The HIMEC were cultured in fibronectin-coated plasticware in MCDB medium (Sigma) supplemented with 20% FBS, 90 μg/ml heparin and 50 μg/ml endothelial cell growth factor (Sigma). T-24 cells (ATCC Accession No. HTB-4) were cultured in M199 medium supplemented with 10% FBS. PBMC were purified by Ficoll-Paque gradient as described (Current Protocols in Immunology, pp 7.1.1-7.1.2). Vero cells (ATCC Accession No. CCL-81) were grown in RPMI medium with 5% Nu serum and infected with the Silvio X-10/4 of T. cruzi as described previously (Chuenkova et al., J. Exp. Med. 181: 1693-1703, (1995)).
Endothelial cells and T-24 cells were plated on 24-well plates at a density of 1×10^3 cells/well, while peripheral blood mononuclear cells (PBMC) were plated in the similar wells at 1×10^6/well. Triplicat cultures of cells were incubated test agents for a predetermined amount of time. […] Cytokines and chemokines released in the culture supernatants were measured by ELISA assay following the instructions of the manufacturer (Endogen). The cytokines tested were IL-1β, IL-4, IL-8, IL-10, IL-12, IFN-γ, TNF-α, and the chemokines RANTES and MCP-1. […]

[5] = tested on: peripheral blood mononuclear cells (PBMC); assay: IL-6 secretion by PBMC (ELISA); assay type: cell-based, human; design: IL-6 secretion by PBMC: dose or concentration left out as unconfirmed; conditions: 24 hrs culture
Protocol: as §3
Endothelial cells and T-24 cells were plated on 24-well plates at a density of 1×10^3 cells/well, while peripheral blood mononuclear cells (PBMC) were plated in the similar wells at 1×10^6/well. Triplicat cultures of cells were incubated test agents for a predetermined amount of time. […] Cytokines and chemokines released in the culture supernatants were measured by ELISA assay following the instructions of the manufacturer (Endogen). The cytokines tested were IL-1β, IL-4, IL-8, IL-10, IL-12, IFN-γ, TNF-α, and the chemokines RANTES and MCP-1. Negative controls were cells incubated in medium containing polymixin B at 10 μg/ml, and positive controls were cells incubated with bacterial LPS at the low ng/ml range (for PBMC or HIMEC) or in the μg/ml range for carcinoma T-24 cells. In some experiments, IL-1β, or TNFα were used as positive control for cytokine release.
TR peptides (Table 2) were synthesized at the Tufts Synthesis Facility (Boston, Mass.). Each peptide was purified by HPLC, and the number of amino acids and molecular weight of each peptide verified by mass spectrometry. Peptides were dissolved in growth medium (10% FCS in RPMI) and added at various concentrations to 1×10^6 PBMC/well in 24-well plates. After 24 hrs, IL-6 was assayed by ELISA in the conditioned supernatants.

[6] = tested on: PC12 cells; assay: Reversal of TS-induced neuroprotection by PI-3 kinase inhibitors in PC12 cells; assay type: cell-based, rat; design: neuronal viability relative to TS-F without wortmannin / neuronal viability relative to TS-F+CNTF without wortmannin: dose or concentration left out as unconfirmed
Protocol: as §2

[7] = tested on: N18 cells; assay: Neurite outgrowth assay in N18 cells; assay type: cell-based; conditions: immobilized proteins coated at 500 μg/ml, 17 hours (FIG. 3A)
Protocol: FIG. 3A is a graph showing that neurite outgrowth in N18 cells is induced by immobilized laminin (Ln), immobilized TS and immobilized fragments of TS. Proteins were immobilized by incubating plates which contained wells filled with solutions of the proteins (protein concentration was 500 μg/ml) at 4° C. overnight. The protein solutions were removed and the plates were further incubated with 1% BSA at room temperature for one hour. N18 cells were cultured in the coated wells in serum-free RPMI-1640/0.2% BSA for 17 hours, and neurite outgrowth was measured by phase-contrast microscopy. […] Ln, laminin; TS, purified T. cruzi trans-sialidase; 7F, recombinant TS from clone 7F; 19Y, recombinant TS from clone 19Y; TS-F, recombinant fragment consisting of amino acid residues 33-666 of TS (SEQ ID NO:2); TS-CC-47, recombinant fragment consisting of amino acid residues 79-478 of TS (SEQ ID NO:2); TS-Cat-47, recombinant fragment consisting of amino acid residues 79-415 of TS (SEQ ID NO:2); BSA, bovine serum albumin.
96-well microtiter plates were coated overnight at 4° C. with the TS or peptides or fragments thereof, or with control proteins laminin (Ln) or bovine serum albumin (BSA) at 500 μg/ml. […] Neurite outgrowth was measured using a phase-contrast microscope 17 hours later.

[8] = tested on: primary cultures of rat Schwann cells; conditions: reported (Weiner and Chun 1999); cited from earlier work
[9] = tested on: normal human neutrophils; assay: IL-6 production by normal human neutrophils; assay type: cell-based
[10] = neurite outgrowth assay, concentration not given
[11] = synthetic peptides 1 μM, DAPI (FIG. 6B)

| Compound | neurite outgrowth in PC12 cells [1, 10] | inhibition of apoptosis of PC12 cells by peptides [2] | inhibition of apoptosis of Schwann cells by peptides [3] | apoptosis suppressing effect of peptide in presence of PI-3 kinase inhibitor LY294002, PC12 cells [2] | apoptosis suppressing effect of peptide in presence of PI-3 kinase inhibitor LY294002, Schwann cells [3] | further results |
| --- | --- | --- | --- | --- | --- | --- |
| DSSAHGTPSTPA [peptide TR, control peptide derived from the tandem repeat] | did not induce neurite outgrowth; also recorded: did not promote neurite outgrowth | did not inhibit apoptosis | did not inhibit apoptosis |  |  |  |
| VCNA: neuraminidase from Vibrio cholera, Calbiochem [reference compound] | did not induce neurite outgrowth |  |  |  |  | neurite outgrowth in PC12 cells ([1]; soluble in serum-free RPMI-1640/0.2% BSA, collagen coated dishes, 16 hours, NGF 0.1 μg/ml, VCNA 2.4 μg/ml, TS 1 μg/ml): does not induce neurite outgrowth; protection of PC12 cells from apoptosis induced by trophic factor withdrawal ([2]; serum-free RPMI-1640/0.2% BSA, DAPI or TUNEL): did not; IL-6 secretion by HIMEC [4]: did not stimulate detectable IL-6 secretion |
| DSSAHGAPSTPADSSAHGTPSTPVDSSAHGTPSTPADSSAHSTPSTPADSSAHSTPSTPA [TR5] |  |  |  |  |  | IL-6 secretion by PBMC [5]: active in promoting IL-6 release |
| QPLRRQRVVVVPLSPRLVLLAFCRQRLPLKRMGGSYRCVNASTAN [peptide C44] | had direct neurotrophic activity; also recorded: induce dose dependent outgrowth of neurites | potent suppressors of apoptosis | potent suppressors of apoptosis | inhibited | inhibited | protection of PC12 cells from apoptosis induced by trophic factor withdrawal [2, 11]: protected PC12 cells from apoptosis |
| GNASQNYWEDAYRC [CYN2] |  | suppressed apoptosis but was less active | suppressed apoptosis but was less active | inhibited | inhibited |  |
| GNASQNVWEDAYRCVNASTAN [C19Y21] |  | potent suppressors of apoptosis | potent suppressors of apoptosis | inhibited | inhibited |  |
| RQRLPKRMGGSYRC [peptide C14] | had direct neurotrophic activity; also recorded: induce dose dependent outgrowth of neurites | potent suppressors of apoptosis | potent suppressors of apoptosis | inhibited | inhibited | protection of PC12 cells from apoptosis induced by trophic factor withdrawal [2, 11]: protected PC12 cells from apoptosis |
| DSSAHGAPSTPADSSAHGTPSTPV [TR2] |  |  |  |  |  | IL-6 secretion by PBMC [5]: less active |
| COC[C@H]1OC(=O)c2coc3c2[C@@]1(C)C1=C(C3=O)[C@@H]2CCC(=O)[C@@]2(C)C[C@H]1OC(C)=O [wortmannin] |  |  |  |  |  | neuronal viability relative to TS-F without wortmannin ([6]; wortmannin with TS-F): 57±2%; neuronal viability relative to TS-F+CNTF without wortmannin ([6]; wortmannin with TS-F+CNTF): 80±3% |
| laminin [reference compound] |  |  |  |  |  | neurite outgrowth in N18 cells [7]: induced |
| YSVDDGETWE [peptide B2, control peptide] | did not induce neurite outgrowth; also recorded: did not promote neurite outgrowth | did not inhibit apoptosis | did not inhibit apoptosis |  |  |  |
| RQRLPKRMGGSYRCVNASTAH [CFN1] | had direct neurotrophic activity | potent suppressors of apoptosis | potent suppressors of apoptosis | inhibited | inhibited |  |
| DSSAHGAPSTPADSSAHGTPSTPVDSSAHGTPSTPADSSAHSTPSTPA [TR4] |  |  |  |  |  | IL-6 secretion by PBMC [5]: active in promoting IL-6 release |
| VNASTAN [CYFN] |  | did not inhibit apoptosis | did not inhibit apoptosis | inhibited | inhibited |  |
| DSSAHGAPSTPA [peptide TR1] |  |  |  |  |  | IL-6 secretion by PBMC [5]: less active |
| lysophosphatidic acid |  |  |  |  |  | active dose for primary cultures of rat Schwann cells [8]: ≥ 10 nM |
| TNF-A |  |  |  |  |  | IL-6 production by normal human neutrophils [9]: did elicit secretion of IL-6 |
| DSSAHGAPSTPADSSAHGTPSTPVDSSAHGTPSTPA [TR3] |  |  |  |  |  | IL-6 secretion by PBMC [5]: less active |
